Earlier results, collected in patent US20150082465A1, “System and Method for Whole-Animal High-Throughput Compound Screening” (System959, LLC, priority 2013, published 2015).

Tested on: C. elegans
Details: by antagonizing egl-19, an L-type calcium channel

Compound: CCOC(=O)C1=C(C)NC(C)=C(C(=O)OCC)C1c1c(F)c(F)c(F)c(F)c1F [Nemadipine]
- growth of C. elegans: inhibit the growth
